# Measured values: patent publication US10316035B2, “Triazolopyridine inhibitors of myeloperoxidase” (BRISTOL-MYERS SQUIBB COMPANY, priority 2015, dated 2019)
# Molecular target: T1, myeloperoxidase (MPO) (Homo sapiens, UniProt P05164)
# T1 sequence (P05164 49-745): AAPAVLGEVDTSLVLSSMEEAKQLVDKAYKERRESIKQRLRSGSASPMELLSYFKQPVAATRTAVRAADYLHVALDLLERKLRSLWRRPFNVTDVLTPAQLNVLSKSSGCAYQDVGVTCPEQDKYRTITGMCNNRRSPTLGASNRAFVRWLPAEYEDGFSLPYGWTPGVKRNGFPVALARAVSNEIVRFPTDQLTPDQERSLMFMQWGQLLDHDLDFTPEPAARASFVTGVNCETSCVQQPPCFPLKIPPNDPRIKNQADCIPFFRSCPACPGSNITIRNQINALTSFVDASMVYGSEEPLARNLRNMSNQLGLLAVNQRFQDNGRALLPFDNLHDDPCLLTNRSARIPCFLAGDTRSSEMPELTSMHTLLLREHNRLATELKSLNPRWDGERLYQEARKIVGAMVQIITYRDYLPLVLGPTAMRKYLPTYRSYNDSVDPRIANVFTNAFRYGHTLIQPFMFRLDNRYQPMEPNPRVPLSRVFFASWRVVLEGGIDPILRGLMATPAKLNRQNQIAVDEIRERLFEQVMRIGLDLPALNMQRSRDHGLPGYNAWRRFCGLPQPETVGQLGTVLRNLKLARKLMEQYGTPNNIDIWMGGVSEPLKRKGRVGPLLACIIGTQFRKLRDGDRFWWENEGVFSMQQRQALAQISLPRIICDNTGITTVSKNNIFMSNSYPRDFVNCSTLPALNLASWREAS
# Assay: MPO peroxidation assay (Amplex Red assay)
# Type: biochemical
# Settings: MPO peroxidation, potency range class; read-out: Amplex Red IC50
# How it was run: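 Peroxidase turnover of Amplex Red to fluorescent resorufin (Ex 535/Em 590 nm) was followed for 15 min in 100 mM KPi, pH 7.4, after 10 min room-temperature preincubation of compound with 200 pM enzyme plus 40 nM H2O2. The substrate mix contained 200 μM Amplex Red and 10 mM H2O2. IC50s came from linear-phase rates (180–540 s) fitted with a Hill equation.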
row,Structure (SMILES),IC50 [nM]
1,"Nc1cc(OCc2ccc(-n3cnc4ccccc43)cc2OC(F)(F)F)c2nn[nH]c2n1 [Example 261, 7-((4-(1H-benzo[d]imidazol-1-yl)-2-(trifluoromethoxy)benzyl)oxy)-3H-[1,2,3] triazolo[4,5-b]pyridin-5-amine]",101 to 999
2,"Nc1cc(OCc2cc(C(=O)N3CCC[C@H]3CO)ccc2Cl)c2nn[nH]c2n1 [Example 179, (S)-(3-((5-amino-3H-[1,2,3]triazolo[4,5-b]pyridin-7-yloxy)methyl)-4-chlorophenyl)(2-(hydroxymethyl)pyrrolidin-1-yl)methanone]",101 to 999
3,"Nc1cc(OCc2cc(C(=O)NC3(CO)CCCC3)ccc2F)c2nn[nH]c2n1 [Example 160, 3-((5-amino-3H-[1,2,3]triazolo[4,5-b]pyridin-7-yloxy)methyl)-4-fluoro-N-(1-(hydroxymethyl)cyclopentyl) benzamide]",101 to 999
4,"Nc1cc(OCc2ccc(-c3cccc(Cl)c3)cc2)c2nn[nH]c2n1 [Example 111, 7-((3′-Chlorobiphenyl-4-yl)methoxy)-3H-[1,2,3]triazolo[4,5-b]pyridin-5-amine]",1000 to 10000
5,"CNC(=O)CNC(=O)c1ccc(COc2cc(N)nc3[nH]nnc23)c(Cl)c1 [Example 218, 4-((5-amino-3H-[1,2,3]triazolo[4,5-b]pyridin-7-yloxy)methyl)-3-chloro-N-(2-(methylamino)-2-oxoethyl) benzamide]",101 to 999
6,Nc1cc(OCc2ccc(C(=O)N3CCC(CO)C3)cc2Cl)c2nn[nH]c2n1 (centres unmarked) [Example 210],101 to 999
7,"Nc1cc(OCc2ccc(C(=O)NCC3CCCCC3)cc2Cl)c2nn[nH]c2n1 [Example 198, 4-((5-amino-3H-[1,2,3]triazolo[4,5-b]pyridin-7-yloxy)methyl)-3-chloro-N-(cyclohexylmethyl)benzamide]",101 to 999
8,"CN(C)Cc1cn(-c2ccc(COc3cc(N)nc4[nH]nnc34)c(OC(F)(F)F)c2)cn1 [Example 266, 7-((4-(4-((dimethylamino)methyl)-1H-imidazol-1-yl)-2-(trifluoromethoxy)benzyl)oxy)-3H-[1,2,3]triazolo[4,5-b]pyridin-5-amine]",101 to 999
9,CN1CCC(N(C)C(=O)c2ccc(F)c(COc3cc(N)nc4[nH]nnc34)c2)C1 (centres unmarked) [Example 164],101 to 999
10,"CC(C)Oc1ccc(-c2ccc(COc3cc(N)nc4[nH]nnc34)c(OC(F)(F)F)c2)cn1 [Example 293, 7-((4-(6-isopropoxypyridin-3-yl)-2-(trifluoromethoxy)benzyl)oxy)-3H-[1,2,3] triazolo[4,5-b]pyridin-5-amine]",101 to 999
11,"N#Cc1cc(-c2ccc(N3CCNC(=O)C3)nc2)ccc1COc1cc(N)nc2[nH]nnc12 [Example 349, 2-(((5-Amino-3H-[1,2,3]triazolo[4,5-b]pyridin-7-yl)oxy)methyl)-5-(6-(3-oxopiperazin-1-yl)pyridin-3-yl)benzonitrile]",101 to 999
12,"Cn1nc(C(F)(F)F)cc1-c1cccc(COc2cc(N)nc3[nH]nnc23)c1 [Example 79, 7-(3-(1-Methyl-3-(trifluoromethyl)-1H-pyrazol-5-yl)benzyloxy)-3H-[1,2,3]triazolo[4,5-b]pyridin-5-amine]",101 to 999
13,"N#Cc1cc(-c2ccc(N3CCCCC3)nc2)ccc1COc1cc(N)nc2[nH]nnc12 [Example 320, 2-(((5-amino-3H-[1,2,3]triazolo[4,5-b]pyridin-7-yl)oxy)methyl)-5-(6-(piperidin-1-yl)pyridin-3-yl)benzonitrile]",101 to 999
14,"Nc1cc(OCc2cccc(C(=O)N3CCOCC3)c2)c2nn[nH]c2n1 [Example 25, (3-((5-Amino-3H-[1,2,3]triazolo[4,5-b]pyridin-7-yloxy)methyl)phenyl)(morpholino)methanone]",101 to 999
15,"Nc1cc(OCc2cccc(-c3ccc(-c4ccccc4)cc3)c2)c2nn[nH]c2n1 [Example 102, 7-((4′-Phenylbiphenyl-3-yl)methoxy)-3H-[1,2,3]triazolo[4,5-b]pyridin-5-amine]",101 to 999
16,"COc1ncc(-c2ccc(COc3cc(N)nc4[nH]nnc34)c(OC(F)(F)F)c2)cn1 [Example 288, 7-((4-(2-methoxypyrimidin-5-yl)-2-(trifluoromethoxy)benzyl)oxy)-3H-[1,2,3] triazolo[4,5-b]pyridin-5-amine]",101 to 999
17,"COC(=O)c1ccc(COc2cc(N)nc3[nH]nnc23)c(Cl)c1 [Example 194, Methyl 4-((5-amino-3H-[1,2,3]triazolo[4,5-b]pyridin-7-yloxy)methyl)-3-chlorobenzoate]",1 to 100
18,"COc1c(COc2cc(N)nc3[nH]nnc23)cccc1-c1ccn(C)n1 [Example 80, 7-(2-Methoxy-3-(1-methyl-1H-pyrazol-3-yl)benzyloxy)-3H-[1,2,3]triazolo[4,5-b]pyridin-5-amine]",101 to 999

# Results, then the compound that gave them:
row,IC50 [nM],Structure (SMILES)
1,1 to 100,"CN(C(=O)c1ccc(Cl)c(COc2cc(N)nc3[nH]nnc23)c1)c1ccccc1 [Example 175, 3-((5-amino-3H-[1,2,3]triazolo [4,5-b]pyridin-7-yloxy)methyl)-4-chloro-N-methyl-N-phenylbenzamide]"
2,1 to 100,"Nc1cc(OCc2cccc(-c3cnn(Cc4ccccc4)c3)c2)c2nn[nH]c2n1 [Example 74, 7-(3-(1-Benzyl-1H-pyrazol-4-yl)benzyloxy)-3H-[1,2,3]triazolo[4,5-b]pyridin-5-amine]"
3,1 to 100,"COc1ccc(OC(F)(F)F)cc1COc1cc(N)nc2[nH]nnc12 [Example 35, 7-(2-Methoxy-5-(trifluoromethoxy)benzyloxy)-3H-[1,2,3]triazolo[4,5-b]pyridin-5-amine]"
4,1 to 100,"Nc1cc(OCc2ccccc2C(F)(F)F)c2nn[nH]c2n1 [Example 239, 7-((2-(Trifluoromethyl)benzyl)oxy)-3H-[1,2,3]triazolo[4,5-b]pyridin-5-amine]"
5,1 to 100,"Nc1cc(OCc2cccc(F)c2F)c2nn[nH]c2n1 [Example 129, 7-((2,3-Difluorobenzyl)oxy)-3H-[1,2,3]triazolo[4,5-b]pyridin-5-amine]"
6,1 to 100,"COc1c(F)cccc1-c1cccc(COc2cc(N)nc3[nH]nnc23)c1 [Example 115, 7-((3′-Fluoro-2′-methoxybiphenyl-3-yl)methoxy)-3H-[1,2,3]triazolo[4,5-b]pyridin-5-amine]"
7,1 to 100,"Nc1cc(OCc2ccc(-c3ccc(N4CCNCC4)nc3)cc2OC(F)(F)F)c2nn[nH]c2n1 [Example 297, 7-((4-(6-(piperazin-1-yl)pyridin-3-yl)-2-(trifluoromethoxy)benzyl)oxy)-3H-[1,2,3] triazolo[4,5-b]pyridin-5-amine]"
8,1 to 100,COc1ccccc1COc1cc(N)nc2[nH]nnc12 [Example 125]
9,1 to 100,"Nc1cc(OCc2cccc(-c3ccc(-c4ccn[nH]4)cc3)c2)c2nn[nH]c2n1 [Example 98, 7-((4′-(1H-Pyrazol-5-yl)biphenyl-3-yl)methoxy)-3H-[1,2,3]triazolo[4,5-b]pyridin-5-amine]"
10,1 to 100,"COc1cccc(Cl)c1-c1ccc(COc2cc(N)nc3[nH]nnc23)cc1 [Example 118, 7-((2′-Chloro-6′-methoxybiphenyl-4-yl)methoxy)-3H-[1,2,3]triazolo[4,5-b]pyridin-5-amine]"
11,1 to 100,"Nc1cc(OCc2ccc(-n3cc4ccccc4n3)cc2OC(F)(F)F)c2nn[nH]c2n1 [Example 259, 7-((4-(2H-indazol-2-yl)-2-(trifluoromethoxy)benzyl)oxy)-3H-[1,2,3]triazolo[4,5-b]pyridin-5-amine]"
12,1 to 100,"CCOc1ccccc1COc1cc(N)nc2[nH]nnc12 [Example 128, 7-((2-Ethoxybenzyl)oxy)-3H-[1,2,3]triazolo[4,5-b]pyridin-5-amine]"
13,1 to 100,"CN(C)S(=O)(=O)c1ccccc1-c1ccc(COc2cc(N)nc3[nH]nnc23)c(Cl)c1 [Example 46, 4′-((5-Amino-3H-[1,2,3]triazolo[4,5-b]pyridin-7-yloxy)methyl)-3′-chloro-N,N-dimethylbiphenyl-2-sulfonamide]"
14,1 to 100,"COc1ncc(-c2ccc(COc3cc(N)nc4[nH]nnc34)c(C#N)c2)cc1F [Example 323, 2-(((5-amino-3H-[1,2,3]triazolo[4,5-b]pyridin-7-yl)oxy)methyl)-5-(5-fluoro-6-methoxypyridin-3-yl)benzonitrile]"
15,1 to 100,"Cc1nc(-c2ccc(COc3cc(N)nc4[nH]nnc34)c(F)c2)no1 [Example 251, 7-((2-fluoro-4-(5-methyl-1,2,4-oxadiazol-3-yl)benzyl)oxy)-3H-[1,2,3]triazolo[4,5-b] pyridin-5-amine]"
16,1 to 100,"Nc1cc(OCc2c(F)ccc(Br)c2F)c2nn[nH]c2n1 [Example 236, 7-((3-Bromo-2,6-difluorobenzyl)oxy)-3H-[1,2,3]triazolo[4,5-b]pyridin-5-amine]"
17,1 to 100,"N#Cc1ccc(-c2ccc(COc3cc(N)nc4[nH]nnc34)c(OC(F)(F)F)c2)cn1 [Example 292, 5-(4-(((5-amino-3H-[1,2,3]triazolo[4,5-b]pyridin-7-yl)oxy)methyl)-3-(trifluoromethoxy)phenyl)picolinonitrile]"
